Measurements published in ChEMBL document CHEMBL3885861, “Open TG-GATES”.

Species on record: Rattus norvegicus
Assay: Open TG-GATES - Regimen: Single
Format: toxicity, organism-based, Sprague-Dawley
Set-up: regimen Single, gender Male, age 6 weeks
Details: in vivo, po, route gavage; for APTT / Bas / Eos / Fbg / Hb / Ht / Lym / MCH / MCHC / MCV / Mono / Neu / PT / Plat / Ret / WBC: tissue Blood; for KIDNEY_L / KIDNEY_R / KIDNEY_TOTAL: tissue Kidney; for LIVER: tissue Liver; for ALP / ALT / AST / BUN / CRE / Ca / DBIL / GLC / IP / K / LDH / Na / PL / RALB / TBIL / TC / TG / TP / gamma-GTP: tissue Plasma

Work on `CN(C)CCCN1c2ccccc2CCc2ccc(Cl)cc21` [CLOMIPRAMINE] yielded an APTT (10 mg/kg, 3 h, dose level Low) of 17.9 s, a Bas (10 mg/kg, 3 h, dose level Low) of 0.4% and an Eos (10 mg/kg, 3 h, dose level Low) of 1%. The Fbg (10 mg/kg, 3 h, dose level Low) was 240 mg/dL, the Hb (10 mg/kg, 3 h, dose level Low) was 14 g/dL and the Ht (10 mg/kg, 3 h, dose level Low) was 43.3%. For the same molecule, the Lym (10 mg/kg, 3 h, dose level Low) was 81%, the MCH (10 mg/kg, 3 h, dose level Low) was 20.7 pg and the MCHC (10 mg/kg, 3 h, dose level Low) was 32.4%. The MCV (10 mg/kg, 3 h, dose level Low) was 63.9 fL, the Mono (10 mg/kg, 3 h, dose level Low) was 3.4% and the Neu (10 mg/kg, 3 h, dose level Low) was 13.8%. For the same molecule, the PT (10 mg/kg, 3 h, dose level Low) was 13.5 s, the Plat (10 mg/kg, 3 h, dose level Low) was 129 x10_4/uL and the Ret (10 mg/kg, 3 h, dose level Low) was 7.8%. For the same molecule, the WBC (10 mg/kg, 3 h, dose level Low) was 74.4 x10_2/uL, the KIDNEY_L (10 mg/kg, 3 h, dose level Low) was 1 g and the KIDNEY_R (10 mg/kg, 3 h, dose level Low) was 1 g. The KIDNEY_TOTAL (10 mg/kg, 3 h, dose level Low) was 1.9 g, the LIVER (10 mg/kg, 3 h, dose level Low) was 10 g and the ALP (10 mg/kg, 3 h, dose level Low) was 1810.4 IU/L. It also gave an ALT (10 mg/kg, 3 h, dose level Low) of 41.2 IU/L, an AST (10 mg/kg, 3 h, dose level Low) of 75.8 IU/L and a BUN (10 mg/kg, 3 h, dose level Low) of 9.8 mg/dL. The CRE (10 mg/kg, 3 h, dose level Low) was 0.2 mg/dL, the Ca (10 mg/kg, 3 h, dose level Low) was 10.7 mg/dL and the DBIL (10 mg/kg, 3 h, dose level Low) was 0.01 mg/dL. It also gave a GLC (10 mg/kg, 3 h, dose level Low) of 189 mg/dL, an IP (10 mg/kg, 3 h, dose level Low) of 9 mg/dL and a K (10 mg/kg, 3 h, dose level Low) of 4.3 meq/L. The LDH (10 mg/kg, 3 h, dose level Low) was 123 IU/L, the Na (10 mg/kg, 3 h, dose level Low) was 140.6 meq/L and the PL (10 mg/kg, 3 h, dose level Low) was 148.6 mg/dL. It also gave an RALB (10 mg/kg, 3 h, dose level Low) of 2.5 g/dL, a TBIL (10 mg/kg, 3 h, dose level Low) of 0.074 mg/dL and a TC (10 mg/kg, 3 h, dose level Low) of 76.2 mg/dL. It also gave a TG (10 mg/kg, 3 h, dose level Low) of 78 mg/dL, a TP (10 mg/kg, 3 h, dose level Low) of 5.2 g/dL and a gamma-GTP (10 mg/kg, 3 h, dose level Low) of 1.2 IU/L. For the same molecule, the TERMINAL_BW (10 mg/kg, 6 h, dose level Low) was 215.1 g, the APTT (10 mg/kg, 6 h, dose level Low) was 17 s and the Bas (10 mg/kg, 6 h, dose level Low) was 0%. The Eos (10 mg/kg, 6 h, dose level Low) was 0.4%, the Fbg (10 mg/kg, 6 h, dose level Low) was 254.8 mg/dL and the Hb (10 mg/kg, 6 h, dose level Low) was 14 g/dL. The Ht (10 mg/kg, 6 h, dose level Low) was 43.7%, the Lym (10 mg/kg, 6 h, dose level Low) was 79.6% and the MCH (10 mg/kg, 6 h, dose level Low) was 21 pg. For the same molecule, the MCHC (10 mg/kg, 6 h, dose level Low) was 32.1%, the MCV (10 mg/kg, 6 h, dose level Low) was 65.5 fL and the Mono (10 mg/kg, 6 h, dose level Low) was 3%. It also gave a Neu (10 mg/kg, 6 h, dose level Low) of 15.6%, a PT (10 mg/kg, 6 h, dose level Low) of 13.6 s and a Plat (10 mg/kg, 6 h, dose level Low) of 119.7 x10_4/uL. It also gave a Ret (10 mg/kg, 6 h, dose level Low) of 7.9%, a WBC (10 mg/kg, 6 h, dose level Low) of 81.1 x10_2/uL and a KIDNEY_L (10 mg/kg, 6 h, dose level Low) of 1 g. It also gave a KIDNEY_R (10 mg/kg, 6 h, dose level Low) of 1 g, a KIDNEY_TOTAL (10 mg/kg, 6 h, dose level Low) of 2 g and an LIVER (10 mg/kg, 6 h, dose level Low) of 9.3 g. The ALP (10 mg/kg, 6 h, dose level Low) was 1661 IU/L, the ALT (10 mg/kg, 6 h, dose level Low) was 39.4 IU/L and the AST (10 mg/kg, 6 h, dose level Low) was 78.4 IU/L. It also gave a BUN (10 mg/kg, 6 h, dose level Low) of 9.4 mg/dL, a CRE (10 mg/kg, 6 h, dose level Low) of 0.2 mg/dL and a Ca (10 mg/kg, 6 h, dose level Low) of 10.8 mg/dL. For the same molecule, the DBIL (10 mg/kg, 6 h, dose level Low) was 0.01 mg/dL, the GLC (10 mg/kg, 6 h, dose level Low) was 189.8 mg/dL and the IP (10 mg/kg, 6 h, dose level Low) was 9.4 mg/dL. It also gave a K (10 mg/kg, 6 h, dose level Low) of 4.2 meq/L, an LDH (10 mg/kg, 6 h, dose level Low) of 93 IU/L and a Na (10 mg/kg, 6 h, dose level Low) of 140.8 meq/L. It also gave a PL (10 mg/kg, 6 h, dose level Low) of 149 mg/dL, an RALB (10 mg/kg, 6 h, dose level Low) of 2.5 g/dL and a TBIL (10 mg/kg, 6 h, dose level Low) of 0.072 mg/dL. The TC (10 mg/kg, 6 h, dose level Low) was 83.4 mg/dL, the TG (10 mg/kg, 6 h, dose level Low) was 52.2 mg/dL and the TP (10 mg/kg, 6 h, dose level Low) was 5.3 g/dL. For the same molecule, the gamma-GTP (10 mg/kg, 6 h, dose level Low) was 1.4 IU/L, the TERMINAL_BW (10 mg/kg, 9 h, dose level Low) was 213 g and the APTT (10 mg/kg, 9 h, dose level Low) was 15.9 s. It also gave a Bas (10 mg/kg, 9 h, dose level Low) of 0%, an Eos (10 mg/kg, 9 h, dose level Low) of 0.6% and a Fbg (10 mg/kg, 9 h, dose level Low) of 267.6 mg/dL. It also gave a Hb (10 mg/kg, 9 h, dose level Low) of 13.5 g/dL, a Ht (10 mg/kg, 9 h, dose level Low) of 41.8% and a Lym (10 mg/kg, 9 h, dose level Low) of 78.8%. It also gave an MCH (10 mg/kg, 9 h, dose level Low) of 20.9 pg, an MCHC (10 mg/kg, 9 h, dose level Low) of 32.2% and an MCV (10 mg/kg, 9 h, dose level Low) of 64.8 fL. For the same molecule, the Mono (10 mg/kg, 9 h, dose level Low) was 2.2%, the Neu (10 mg/kg, 9 h, dose level Low) was 17.4% and the PT (10 mg/kg, 9 h, dose level Low) was 14.1 s. It also gave a Plat (10 mg/kg, 9 h, dose level Low) of 130.4 x10_4/uL, a Ret (10 mg/kg, 9 h, dose level Low) of 8.4% and a WBC (10 mg/kg, 9 h, dose level Low) of 80 x10_2/uL. It also gave a KIDNEY_L (10 mg/kg, 9 h, dose level Low) of 1 g, a KIDNEY_R (10 mg/kg, 9 h, dose level Low) of 0.9 g and a KIDNEY_TOTAL (10 mg/kg, 9 h, dose level Low) of 1.9 g. It also gave an LIVER (10 mg/kg, 9 h, dose level Low) of 9 g, an ALP (10 mg/kg, 9 h, dose level Low) of 1512 IU/L and an ALT (10 mg/kg, 9 h, dose level Low) of 35.8 IU/L. The AST (10 mg/kg, 9 h, dose level Low) was 67.8 IU/L, the BUN (10 mg/kg, 9 h, dose level Low) was 10.4 mg/dL and the CRE (10 mg/kg, 9 h, dose level Low) was 0.2 mg/dL. The Ca (10 mg/kg, 9 h, dose level Low) was 10.7 mg/dL, the DBIL (10 mg/kg, 9 h, dose level Low) was 0.01 mg/dL and the GLC (10 mg/kg, 9 h, dose level Low) was 187.8 mg/dL. It also gave an IP (10 mg/kg, 9 h, dose level Low) of 10.2 mg/dL, a K (10 mg/kg, 9 h, dose level Low) of 4 meq/L and an LDH (10 mg/kg, 9 h, dose level Low) of 84.2 IU/L. For the same molecule, the Na (10 mg/kg, 9 h, dose level Low) was 140.2 meq/L, the PL (10 mg/kg, 9 h, dose level Low) was 138.2 mg/dL and the RALB (10 mg/kg, 9 h, dose level Low) was 2.5 g/dL. For the same molecule, the TBIL (10 mg/kg, 9 h, dose level Low) was 0.064 mg/dL, the TC (10 mg/kg, 9 h, dose level Low) was 75.2 mg/dL and the TG (10 mg/kg, 9 h, dose level Low) was 74 mg/dL. It also gave a TP (10 mg/kg, 9 h, dose level Low) of 5.3 g/dL, a gamma-GTP (10 mg/kg, 9 h, dose level Low) of 1.4 IU/L and a TERMINAL_BW (10 mg/kg, 24 h, dose level Low) of 228.6 g. It also gave an APTT (10 mg/kg, 24 h, dose level Low) of 17.7 s, a Bas (10 mg/kg, 24 h, dose level Low) of 0% and an Eos (10 mg/kg, 24 h, dose level Low) of 1%. The Fbg (10 mg/kg, 24 h, dose level Low) was 249 mg/dL, the Hb (10 mg/kg, 24 h, dose level Low) was 13.6 g/dL and the Ht (10 mg/kg, 24 h, dose level Low) was 42.5%. For the same molecule, the Lym (10 mg/kg, 24 h, dose level Low) was 77%, the MCH (10 mg/kg, 24 h, dose level Low) was 20.8 pg and the MCHC (10 mg/kg, 24 h, dose level Low) was 32.1%. It also gave an MCV (10 mg/kg, 24 h, dose level Low) of 65 fL, a Mono (10 mg/kg, 24 h, dose level Low) of 3% and a Neu (10 mg/kg, 24 h, dose level Low) of 17.6%. It also gave a PT (10 mg/kg, 24 h, dose level Low) of 13.7 s, a Plat (10 mg/kg, 24 h, dose level Low) of 124 x10_4/uL and a Ret (10 mg/kg, 24 h, dose level Low) of 7.7%. The WBC (10 mg/kg, 24 h, dose level Low) was 85.9 x10_2/uL, the KIDNEY_L (10 mg/kg, 24 h, dose level Low) was 1.1 g and the KIDNEY_R (10 mg/kg, 24 h, dose level Low) was 1 g. It also gave a KIDNEY_TOTAL (10 mg/kg, 24 h, dose level Low) of 2.1 g, an ALP (10 mg/kg, 24 h, dose level Low) of 1661.4 IU/L and an ALT (10 mg/kg, 24 h, dose level Low) of 42.6 IU/L. For the same molecule, the AST (10 mg/kg, 24 h, dose level Low) was 74.4 IU/L, the BUN (10 mg/kg, 24 h, dose level Low) was 13 mg/dL and the CRE (10 mg/kg, 24 h, dose level Low) was 0.2 mg/dL. For the same molecule, the Ca (10 mg/kg, 24 h, dose level Low) was 10.8 mg/dL, the DBIL (10 mg/kg, 24 h, dose level Low) was 0.012 mg/dL and the GLC (10 mg/kg, 24 h, dose level Low) was 179.8 mg/dL. The IP (10 mg/kg, 24 h, dose level Low) was 8.1 mg/dL, the K (10 mg/kg, 24 h, dose level Low) was 4 meq/L and the LDH (10 mg/kg, 24 h, dose level Low) was 88 IU/L. The Na (10 mg/kg, 24 h, dose level Low) was 141.8 meq/L, the PL (10 mg/kg, 24 h, dose level Low) was 144.4 mg/dL and the RALB (10 mg/kg, 24 h, dose level Low) was 2.6 g/dL. For the same molecule, the TBIL (10 mg/kg, 24 h, dose level Low) was 0.062 mg/dL, the TC (10 mg/kg, 24 h, dose level Low) was 73.8 mg/dL and the TG (10 mg/kg, 24 h, dose level Low) was 91.6 mg/dL. For the same molecule, the TP (10 mg/kg, 24 h, dose level Low) was 5.4 g/dL, the gamma-GTP (10 mg/kg, 24 h, dose level Low) was 1 IU/L and the TERMINAL_BW (30 mg/kg, 3 h, dose level Middle) was 217.9 g.
